Results on 3 molecules are retold here after ChEMBL document CHEMBL4052759, “Discovery of DS79182026: A potent orally active hepcidin production inhibitor” (Bioorg Med Chem Lett, 2017).

For assay [1], the target named is T1, Calcium/calmodulin-dependent protein kinase type IV (Homo sapiens) (UniProt Q16566).
T1 sequence (whole entry): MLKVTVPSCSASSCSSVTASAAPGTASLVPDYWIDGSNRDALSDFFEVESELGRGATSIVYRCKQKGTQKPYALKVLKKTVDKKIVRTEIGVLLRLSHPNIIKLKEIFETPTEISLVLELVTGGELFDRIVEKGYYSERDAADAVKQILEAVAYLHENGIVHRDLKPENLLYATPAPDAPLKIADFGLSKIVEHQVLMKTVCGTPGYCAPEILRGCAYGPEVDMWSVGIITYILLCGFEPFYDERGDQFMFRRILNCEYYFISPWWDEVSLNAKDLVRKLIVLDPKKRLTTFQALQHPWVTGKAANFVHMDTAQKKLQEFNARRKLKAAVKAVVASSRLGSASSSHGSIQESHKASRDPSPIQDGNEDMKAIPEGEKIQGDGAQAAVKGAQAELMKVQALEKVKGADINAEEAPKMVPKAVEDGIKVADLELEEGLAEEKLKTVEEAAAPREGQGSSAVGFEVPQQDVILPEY
Briefly: Inhibition of CAMK4 (unknown origin) at 0.078 uM relative to control.

Assay [2] has as its target Mitogen-activated protein kinase 3 (Homo sapiens) (UniProt P27361). The assay can be described thus: Inhibition of Erk1 (unknown origin) at 0.078 uM relative to control.
Assay [3] has as its target Glycogen synthase kinase-3 beta (Homo sapiens) (UniProt P49841). Briefly: Inhibition of GSK3b (unknown origin) at 0.078 uM relative to control.
Assay [4] addresses Ribosomal protein S6 kinase alpha-5 (Homo sapiens) (UniProt O75582). Briefly: Inhibition of MSK1 (unknown origin) at 0.49 uM relative to control.
The target in assay [5] is Ephrin type-A receptor 2 (Homo sapiens) (UniProt P29317). Briefly: Inhibition of EPHA2 (unknown origin) at 0.49 uM relative to control.
For assay [6], the system named is Fibroblast growth factor receptor 1 (Homo sapiens), P11362 [V561M]. The assay can be described thus: Inhibition of FGFR1 V561M mutant (unknown origin) at 0.49 uM relative to control.
Fibroblast growth factor receptor 1 (Homo sapiens), P11362 [V561M], sequence (P11362 whole entry V561M): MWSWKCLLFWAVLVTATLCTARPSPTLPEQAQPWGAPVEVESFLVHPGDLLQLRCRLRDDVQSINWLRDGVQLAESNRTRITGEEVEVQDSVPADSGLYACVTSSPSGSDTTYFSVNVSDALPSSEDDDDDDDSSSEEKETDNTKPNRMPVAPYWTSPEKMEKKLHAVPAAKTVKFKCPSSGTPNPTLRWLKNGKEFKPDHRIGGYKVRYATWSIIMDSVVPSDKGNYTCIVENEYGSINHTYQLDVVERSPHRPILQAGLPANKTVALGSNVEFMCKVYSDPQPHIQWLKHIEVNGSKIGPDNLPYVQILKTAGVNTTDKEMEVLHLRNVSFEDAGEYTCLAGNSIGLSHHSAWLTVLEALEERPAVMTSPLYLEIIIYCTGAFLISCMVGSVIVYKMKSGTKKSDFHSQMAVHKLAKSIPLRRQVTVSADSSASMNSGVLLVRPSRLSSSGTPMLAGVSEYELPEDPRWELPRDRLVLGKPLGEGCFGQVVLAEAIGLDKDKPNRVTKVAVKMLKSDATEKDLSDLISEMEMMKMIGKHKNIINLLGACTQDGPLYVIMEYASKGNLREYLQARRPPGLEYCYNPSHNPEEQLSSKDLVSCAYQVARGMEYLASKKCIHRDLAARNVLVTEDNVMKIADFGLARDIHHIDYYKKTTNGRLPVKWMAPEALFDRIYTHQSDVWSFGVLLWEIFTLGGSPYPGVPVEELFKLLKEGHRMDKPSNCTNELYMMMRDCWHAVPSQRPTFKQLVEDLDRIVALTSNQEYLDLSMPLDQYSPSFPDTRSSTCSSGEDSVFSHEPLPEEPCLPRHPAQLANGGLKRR
For assay [7], the target named is Tyrosine-protein kinase Fyn (Homo sapiens) (UniProt P06241). Briefly: Inhibition of FYN (unknown origin) at 0.49 uM relative to control.
For assay [8], the target named is Maternal embryonic leucine zipper kinase (Homo sapiens) (UniProt Q14680). Briefly: Inhibition of MELK (unknown origin) at 0.49 uM relative to control.
The target of assay [9] is PAS domain-containing serine/threonine-protein kinase (Homo sapiens) (UniProt Q96RG2). The assay can be described thus: Inhibition of PASK (unknown origin) at 0.49 uM relative to control.
Assay [10] has as its system Tyrosine-protein kinase ABL1 (Homo sapiens), P00519 [E255K]. The assay can be described thus: Inhibition of ABL1 E255K mutant (unknown origin) at 0.49 uM relative to control.
Assay [11] concerns the target Platelet-derived growth factor receptor alpha (Homo sapiens) (UniProt P16234). Briefly: Inhibition of PDGFR alpha (unknown origin) at 0.49 uM relative to control.
The target of assay [12] is Proto-oncogene tyrosine-protein kinase receptor Ret (Homo sapiens) (UniProt P07949). Briefly: Inhibition of RET (unknown origin) at 0.49 uM relative to control.
Assay [13] has as its target Serine/threonine-protein kinase D1 (Homo sapiens) (UniProt Q15139). Briefly: Inhibition of PKD1 (unknown origin) at 0.49 uM relative to control.
For assay [14], the target named is MAP/microtubule affinity-regulating kinase 3 (Homo sapiens) (UniProt P27448). Briefly: Inhibition of c-TAK1 (unknown origin) at 0.49 uM relative to control.
MAP/microtubule affinity-regulating kinase 3 (Homo sapiens), sequence (P27448 whole entry, looked up): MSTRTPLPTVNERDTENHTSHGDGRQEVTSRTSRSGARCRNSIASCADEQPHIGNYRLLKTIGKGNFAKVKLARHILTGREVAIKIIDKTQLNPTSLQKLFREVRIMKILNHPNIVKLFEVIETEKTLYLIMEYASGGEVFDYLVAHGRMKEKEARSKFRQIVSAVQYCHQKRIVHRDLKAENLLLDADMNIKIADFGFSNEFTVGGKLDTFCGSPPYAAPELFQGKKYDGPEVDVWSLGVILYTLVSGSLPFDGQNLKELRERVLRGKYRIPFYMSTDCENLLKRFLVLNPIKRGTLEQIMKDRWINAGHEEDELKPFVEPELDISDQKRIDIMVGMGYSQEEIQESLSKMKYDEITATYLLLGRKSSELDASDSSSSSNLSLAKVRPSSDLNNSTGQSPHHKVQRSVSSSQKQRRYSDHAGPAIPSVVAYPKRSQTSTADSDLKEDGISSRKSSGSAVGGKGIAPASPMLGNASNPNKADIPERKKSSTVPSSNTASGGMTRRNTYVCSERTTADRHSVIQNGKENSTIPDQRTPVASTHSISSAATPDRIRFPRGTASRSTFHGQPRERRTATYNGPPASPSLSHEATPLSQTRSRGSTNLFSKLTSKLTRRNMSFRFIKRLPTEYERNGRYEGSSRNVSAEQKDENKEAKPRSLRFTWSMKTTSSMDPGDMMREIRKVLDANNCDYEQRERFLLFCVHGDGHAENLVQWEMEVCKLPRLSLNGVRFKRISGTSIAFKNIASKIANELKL
Assay [15] concerns the target Ribosomal protein S6 kinase alpha-4 (Homo sapiens) (UniProt O75676). Briefly: Inhibition of MSK2 (unknown origin) at 0.45 uM relative to control.
Assay [16] deals with Protein kinase C epsilon type (Homo sapiens) (UniProt Q02156). The assay can be described thus: Inhibition of PKC-epsilon (unknown origin) at 0.45 uM relative to control.
The target in assay [17] is Dual specificity tyrosine-phosphorylation-regulated kinase 4 (Homo sapiens) (UniProt Q9NR20). The assay can be described thus: Inhibition of DYRK4 (unknown origin) at 0.45 uM relative to control.
Assay [18] addresses Serine/threonine-protein kinase PAK 5 (Homo sapiens) (UniProt Q9P286). The assay can be described thus: Inhibition of PAK5 (unknown origin) at 0.45 uM relative to control.
For assay [19], the target named is Vascular endothelial growth factor receptor 3 (Homo sapiens) (UniProt P35916). The assay can be described thus: Inhibition of FLT4 (unknown origin) at 0.45 uM relative to control.
Assay [20] addresses Vascular endothelial growth factor receptor 2 (Homo sapiens) (UniProt P35968). The assay can be described thus: Inhibition of KDR (unknown origin) at 0.45 uM relative to control.
Assay [21] concerns the target Platelet-derived growth factor receptor beta (Homo sapiens) (UniProt P09619). Briefly: Inhibition of PDGFR beta (unknown origin) at 0.45 uM relative to control.
For assay [22], the target named is MAP kinase-activated protein kinase 2 (Homo sapiens) (UniProt P49137). The assay can be described thus: Inhibition of MAPKAPK2 (unknown origin) at 0.45 uM relative to control.
Assay [23] has as its target Serine/threonine-protein kinase MARK1 (Homo sapiens) (UniProt Q9P0L2). The assay can be described thus: Inhibition of MARK1 (unknown origin) at 0.45 uM relative to control.
The target of assay [24] is MAP/microtubule affinity-regulating kinase 4 (Homo sapiens) (UniProt Q96L34). The assay can be described thus: Inhibition of MARK4 (unknown origin) at 0.45 uM relative to control.
For assay [25], the target named is Serine/threonine-protein kinase D1 (Homo sapiens) (UniProt Q15139). The assay can be described thus: Inhibition of PKD1 (unknown origin) at 0.45 uM relative to control.
Serine/threonine-protein kinase D1 (Homo sapiens), sequence (Q15139 whole entry, looked up): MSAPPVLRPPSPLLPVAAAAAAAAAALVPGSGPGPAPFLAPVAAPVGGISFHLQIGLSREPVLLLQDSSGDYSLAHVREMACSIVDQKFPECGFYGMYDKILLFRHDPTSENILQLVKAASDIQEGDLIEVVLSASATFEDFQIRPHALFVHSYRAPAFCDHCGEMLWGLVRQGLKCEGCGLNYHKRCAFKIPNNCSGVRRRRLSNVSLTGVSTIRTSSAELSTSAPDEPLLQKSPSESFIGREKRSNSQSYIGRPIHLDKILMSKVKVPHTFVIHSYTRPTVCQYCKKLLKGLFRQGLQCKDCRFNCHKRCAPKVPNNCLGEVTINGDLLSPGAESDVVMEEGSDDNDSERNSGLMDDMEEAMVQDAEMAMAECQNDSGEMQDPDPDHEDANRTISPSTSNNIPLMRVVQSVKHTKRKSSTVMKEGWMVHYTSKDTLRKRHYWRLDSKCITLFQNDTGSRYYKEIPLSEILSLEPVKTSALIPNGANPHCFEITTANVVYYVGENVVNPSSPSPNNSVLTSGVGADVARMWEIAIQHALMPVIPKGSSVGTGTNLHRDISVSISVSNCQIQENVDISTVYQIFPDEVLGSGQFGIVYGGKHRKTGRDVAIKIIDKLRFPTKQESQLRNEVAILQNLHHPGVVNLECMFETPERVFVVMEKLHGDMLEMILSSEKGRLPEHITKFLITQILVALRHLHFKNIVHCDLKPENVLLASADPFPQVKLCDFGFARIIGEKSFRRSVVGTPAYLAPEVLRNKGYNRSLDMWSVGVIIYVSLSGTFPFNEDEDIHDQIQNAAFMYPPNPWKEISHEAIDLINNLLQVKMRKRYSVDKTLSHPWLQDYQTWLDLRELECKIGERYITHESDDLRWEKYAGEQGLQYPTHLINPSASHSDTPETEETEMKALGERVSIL

Tyrosine-protein kinase ABL1 (Homo sapiens), P00519 [E255K], sequence (P00519 whole entry E255K): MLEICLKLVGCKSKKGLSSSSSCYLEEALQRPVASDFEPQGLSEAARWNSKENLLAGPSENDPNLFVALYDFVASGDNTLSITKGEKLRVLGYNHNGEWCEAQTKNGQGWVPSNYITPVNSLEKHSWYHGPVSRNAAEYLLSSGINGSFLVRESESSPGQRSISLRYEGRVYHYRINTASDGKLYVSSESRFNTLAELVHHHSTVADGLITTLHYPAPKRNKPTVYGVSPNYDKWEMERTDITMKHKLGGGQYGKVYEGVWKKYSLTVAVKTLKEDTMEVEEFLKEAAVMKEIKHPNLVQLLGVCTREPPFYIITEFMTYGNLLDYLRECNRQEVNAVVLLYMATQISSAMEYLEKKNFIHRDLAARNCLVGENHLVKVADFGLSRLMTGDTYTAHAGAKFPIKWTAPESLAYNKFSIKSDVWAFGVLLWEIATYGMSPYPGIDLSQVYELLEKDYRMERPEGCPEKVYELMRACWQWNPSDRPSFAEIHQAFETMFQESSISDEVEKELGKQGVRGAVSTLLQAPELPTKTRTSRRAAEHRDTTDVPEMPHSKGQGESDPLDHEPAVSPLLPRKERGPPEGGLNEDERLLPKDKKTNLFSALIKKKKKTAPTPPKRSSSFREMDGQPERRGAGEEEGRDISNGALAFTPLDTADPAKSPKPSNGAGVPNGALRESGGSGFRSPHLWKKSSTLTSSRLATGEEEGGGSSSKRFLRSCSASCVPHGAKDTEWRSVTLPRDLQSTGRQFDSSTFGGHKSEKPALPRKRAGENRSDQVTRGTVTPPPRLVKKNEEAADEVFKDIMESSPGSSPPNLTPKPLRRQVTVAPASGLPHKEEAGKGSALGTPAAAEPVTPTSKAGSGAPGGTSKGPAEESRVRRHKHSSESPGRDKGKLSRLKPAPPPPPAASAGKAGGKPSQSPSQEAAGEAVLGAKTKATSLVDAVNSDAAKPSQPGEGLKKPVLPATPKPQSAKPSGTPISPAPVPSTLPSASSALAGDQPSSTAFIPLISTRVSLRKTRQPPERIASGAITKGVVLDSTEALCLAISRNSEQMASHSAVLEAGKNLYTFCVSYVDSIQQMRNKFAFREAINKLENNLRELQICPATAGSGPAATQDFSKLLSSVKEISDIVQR
Platelet-derived growth factor receptor beta (Homo sapiens), sequence (P09619 whole entry): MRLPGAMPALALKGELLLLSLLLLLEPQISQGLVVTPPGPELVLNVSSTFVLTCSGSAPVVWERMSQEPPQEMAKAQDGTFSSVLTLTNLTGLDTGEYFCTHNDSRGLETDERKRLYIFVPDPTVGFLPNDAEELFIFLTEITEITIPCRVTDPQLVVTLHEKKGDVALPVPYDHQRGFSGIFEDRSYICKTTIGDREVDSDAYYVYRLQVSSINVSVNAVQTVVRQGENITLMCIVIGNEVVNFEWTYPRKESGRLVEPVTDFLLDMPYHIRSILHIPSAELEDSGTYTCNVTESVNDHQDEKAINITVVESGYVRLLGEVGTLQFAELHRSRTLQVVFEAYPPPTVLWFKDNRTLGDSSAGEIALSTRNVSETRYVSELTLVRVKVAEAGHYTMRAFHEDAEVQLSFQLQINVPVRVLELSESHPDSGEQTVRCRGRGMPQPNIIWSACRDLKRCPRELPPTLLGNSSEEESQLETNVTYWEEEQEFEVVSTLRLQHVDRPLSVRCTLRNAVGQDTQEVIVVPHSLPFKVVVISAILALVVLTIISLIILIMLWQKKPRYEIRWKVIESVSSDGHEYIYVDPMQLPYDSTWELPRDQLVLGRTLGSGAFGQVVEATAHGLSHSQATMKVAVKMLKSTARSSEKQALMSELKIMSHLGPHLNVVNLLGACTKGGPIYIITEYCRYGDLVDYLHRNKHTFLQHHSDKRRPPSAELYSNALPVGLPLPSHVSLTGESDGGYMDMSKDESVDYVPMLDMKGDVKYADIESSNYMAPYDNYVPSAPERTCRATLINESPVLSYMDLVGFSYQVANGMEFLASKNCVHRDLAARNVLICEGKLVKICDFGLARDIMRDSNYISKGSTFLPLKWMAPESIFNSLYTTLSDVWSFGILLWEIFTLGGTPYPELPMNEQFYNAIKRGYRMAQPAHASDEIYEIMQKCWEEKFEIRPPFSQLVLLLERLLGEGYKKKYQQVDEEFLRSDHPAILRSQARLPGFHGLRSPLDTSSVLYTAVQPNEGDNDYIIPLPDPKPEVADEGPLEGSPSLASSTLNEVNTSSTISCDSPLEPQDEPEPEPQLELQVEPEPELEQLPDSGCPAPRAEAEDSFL
Mitogen-activated protein kinase 3 (Homo sapiens), sequence (P27361 whole entry): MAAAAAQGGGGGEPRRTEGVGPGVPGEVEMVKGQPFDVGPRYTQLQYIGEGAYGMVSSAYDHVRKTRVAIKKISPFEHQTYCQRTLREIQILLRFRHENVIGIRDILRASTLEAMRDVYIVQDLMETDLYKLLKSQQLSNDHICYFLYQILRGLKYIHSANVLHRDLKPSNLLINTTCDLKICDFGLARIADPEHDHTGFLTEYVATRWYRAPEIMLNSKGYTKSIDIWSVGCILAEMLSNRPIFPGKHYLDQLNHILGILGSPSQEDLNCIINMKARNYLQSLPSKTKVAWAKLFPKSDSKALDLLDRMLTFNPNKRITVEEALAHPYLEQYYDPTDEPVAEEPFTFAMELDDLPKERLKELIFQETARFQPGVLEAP

The term inhibition denotes the drop in the measured response relative to a control, in per cent. Regarding `COC(=O)Nc1noc2cc(-c3c(-c4ccccn4)n[nH]c3C)ccc12`, the inhibition in assay [1] came to 6.7%; in assay [2], 8%; in [3], 10%.

Turning to `Cc1[nH]nc(C2CC2)c1-c1ccc2c(NC(=O)C3CC3)noc2c1`, the inhibition in assay [4] was 5.7%; in assay [5], -0.3%; in assay [6] it was 3.7%; in [7] it was 2.7%; in assay [8], 4%; in assay [9], 1.3%. Besides, the inhibition in assay [10] turned out to be 21.3%; in [11] it was 0.7%; in assay [12] it was 15%; in [13] it was 1.7%; in [14] it was 6%.

Regarding `Cc1n[nH]c(C)c1-c1ccc2c(NC(=O)c3ccc(N4CCN(C)CC4)cc3)n[nH]c2c1`, the inhibition in assay [15] is -3.3%; in [16] it was 9%; in assay [17], 2.7%; in assay [18] it was 5.3%; in [19] it was 10%; in [20], 35.7%. For the same molecule, the inhibition is 78.3% in [21]; 0.3% in assay [22]; 36.7% in assay [23]; 37% in assay [24]; 1.3% in assay [25].
